Assay results reported in patent US20240279275A1, “HEXAPEPTIDE DERIVATIVE AND COSMETIC COMPOSITION OR PHARMACEUTICAL COMPOSITION AND USE THEREOF” (SHENZHEN WINKEY TECHNOLOGY CO., LTD, priority 2021, published 2024).
Residues, ends and D or L forms follow the SMILES beside them. *: point of attachment. Caffeoyl = O=C(/C=C/c1ccc(O)c(O)c1)*; Galloyl = O=C(c1cc(O)c(O)c(O)c1)*

Tests used:
[1] = system: NIH3T3 cells; test: ROS staining assay, UV photoaging model; assay type: cell-based, Mouse; conditions: after UV irradiation, 24 h, ROS fluorescent probe
Source text: (§1) Mouse skin fibroblasts (NIH3T3) were purchased from the Shanghai Cell Bank of China Center for Type Culture Collection under the Chinese Academy of Sciences.
(§2) • CA, at a test concentration of 1 ppm; • GA, at a test concentration of 10 ppm; • the reference peptide, at a test concentration of 1 ppm and 10 ppm, respectively; • the peptide (2), at a test concentration of 1 ppm; • the peptide (4), at a test concentration of 10 ppm.
Another indication of aging is an increase in intracellular oxidative stress levels, that is, an increase in ROS, and aging can be slowed down by alleviating oxidative stress. The purpose of this experiment is to test the impact of the peptide derivatives of the present invention on oxidative stress levels using ROS staining assay, thereby evaluating the antioxidant effect.
(§3) The frozen NIH3T3 cells were cultured and passaged at a ratio of 1:2 to about the 5th generation, and the cells in better growth were selected as experiment subjects.
(§4) The cells were inoculated into a 96-well plate at 10,000 cells/well, and when the cells were approximately 80% full, a UV photoaging model was established. In the control group, a PBS solution was added, supplemented with the culture medium to 200 μL, while no UV irradiation was performed; For the UV group and the drug group, a proper amount of PBS was added to wash the culture repeatedly until colorless, followed by adding 50 μL PBS and irradiating under an 80 J/cm^3 UV light. The distance between the light source and the culture bottle was 15 cm. After irradiation, the PBS was removed. In the UV group, a PBS solution and the culture medium were added to 200 μL; in the drug group, the culture medium and the drug diluted in a certain ratio were added to 200 μL. The control group, the UV group, and the drug group were further incubated in a 37° C., 5% CO2 incubator for 24 h.
The culture medium was removed. Each group was stained according to the ROS probe instructions for 20 min and was observed under a fluorescence microscope.

[2] = system: NIH3T3 cells; test: β-galactosidase staining assay, UV photoaging model; assay type: cell-based, Mouse; conditions: after UV irradiation, 24 h
Source text: as §1
as §2, with “1 ppm, 10 ppm, and 100 ppm, respectively;” for “1 ppm;”, “1 ppm, 10 ppm,” for “1 ppm”, “and 100” for “and 10”, “peptide (4)” for “peptide (4),”, “ppm. 3.” for “ppm.”
The purpose of this experiment is to test the impact of the peptide derivatives of the present invention on cell senescence using a β-galactosidase staining assay to evaluate the anti-photoaging capability.
as §3
as §4, with “h. The culture medium was removed. 100 μL 4% paraformaldehyde was added to each well and fixed at room temperature for 15 min, followed by washing with PBS three times, adding a β-galactosidase staining agent (X-gal 0.01%, potassium ferricyanide 0.16%, ferrocyanide potassium 0.02%) 50 μL/well, sealing with plastic wrap, and staining in a 37° C. incubator in the dark for 12 h. The staining solution was removed. Each group was washed with PBS three times, and photographed under a light microscope. The number of cells in the field of view and the number of stained cells were counted.” for “h.”
UV irradiation can cause cell senescence, and the cytoplasm of senescent cells are stained blue-green by the β-galactosidase agent (shown as the dark part in the black and white images). This experiment evaluates the anti-photoaging capability of the peptide derivatives of the present invention through staining morphology images and senescent cell staining statistics.

[3] = cited from earlier work
[4] = system: NIH3T3 cells; test: Cell proliferation assay (MTT); assay type: cell-based, Mouse; conditions: 72 h
Source text: as §1
• CA, at a test concentration of 1 ppm, 10 ppm, 100 ppm, and 500 ppm, respectively; • GA, at a test concentration of 1 ppm, 10 ppm, 100 ppm, and 500 ppm, respectively; • the peptide H-Gly-Pro-Gln-Gly-Pro-Gln-NH2 (hereinafter referred to as the reference peptide), at a test concentration of 1 ppm, 10 ppm, 100 ppm, and 500 ppm, respectively; • the peptide (2) CA-Gly-Pro-Gln-Gly-Pro-Gln-NH2, at a test concentration of 1 ppm, 10 ppm, 100 ppm, and 500 ppm, respectively; • the peptide (4) GA-Gly-Pro-Gln-Gly-Pro-Gln-NH2, at a test concentration of 1 ppm, 10 ppm, 100 ppm, and 500 ppm, respectively.
The purpose of this experiment is to evaluate cell viability 72 h after administration and determine the effect of the peptide derivatives of the present invention on cell proliferation by using NIH3T3 cells as the experiment subject.
NIH3T3 cells in good exponential growth phase were taken. A 0.25% trypsin digestion solution was added so that digestion allowed the adherent cells to fall off, counting (1−4)×10^5 cells/mL, which were prepared into a cell suspension.
The cell suspension was inoculated on a 96-well plate with 200 μL/well, and cultured in a constant-temperature CO2 incubator for 24 h.
After changing the medium, the cell suspension was added to drug groups and the control group, respectively, each of which was placed in 20 μL/well and incubated in a 37° C., 5% CO2 incubator for 72 h.
Then 20 μL 5 mg/ml MTT was added to each well and the incubation was continued for 4 h in the 37° C., 5% CO2 incubator. The original solution was removed and 150 μL/well DMSO was added. The plate was placed on a plate shaker for shaking for 5 min. A microplate reader was used to determine the OD value of each well at a wavelength of 570 nm, and calculate the cell viability.
Cell viability=[OD(administration well)−OD(zero adjustment well)]/[OD(control well)−OD(zero adjustment well)]×100%

[5] = test concentrations 1 ppm to 100 ppm
[6] = 500 ppm, compared with the control group

Compound | ROS level per unit cells ([1]; 1 ppm) | proportion of senescent cells (β-galactosidase staining) [2, 5] | solubility in cold water [3] | effect on NIH3T3 cell viability / toxicity [4, 6] | ROS level per unit cells ([1]; 10 ppm) | proportion of senescent cells (β-galactosidase staining) ([2]; 10 ppm) | effect on NIH3T3 cell viability / toxicity ([4]; 100 ppm, compared with the control group) | toxic effect on NIH3T3 cells ([4]; high concentrations) | solubility in water ([3]; water) | effect on NIH3T3 cell viability ([4]; 10 ppm to 500 ppm, compared with the control group)
O=C(O)C=Cc1ccc(O)c(O)c1 [CA, 3,4-dihydroxycinnamic acid] | reduced the ROS level per unit cells to a certain extent | unable to reduce the proportion of senescent cells | slightly soluble | significant toxicity |  |  |  |  |  | 
O=C(O)c1cc(O)c(O)c(O)c1 [GA, 3,4,5-trihydroxybenzoic acid] |  |  | insoluble | significant toxicity | had a certain effect in reducing ROS | unable to reduce the proportion of senescent cells | significant toxicity |  |  | 
NC(=O)CCC(NC(=O)C1CCCN1C(=O)CNC(=O)C(CCC(N)=O)NC(=O)C1CCCN1C(=O)CNC(=O)/C=C/c1ccc(O)c(O)c1)C(N)=O (stereo not drawn) [peptide (2), CA-Gly-Pro-Gln-Gly-Pro-Gln-NH2] (Caffeoyl-GPQGPQ-NH2; configuration not given here) | significantly reduced the expression of ROS per unit cells | significantly reduced the proportion of senescent cells |  | significantly improve cell viability |  |  |  |  |  | 
NC(=O)CCC(NC(=O)C1CCCN1C(=O)CNC(=O)C(CCC(N)=O)NC(=O)C1CCCN1C(=O)CNC(=O)c1cc(O)c(O)c(O)c1)C(N)=O (stereo not drawn) [peptide (4), GA-Gly-Pro-Gln-Gly-Pro-Gln-NH2] (Galloyl-GPQGPQ-NH2; configuration not given here) |  |  |  |  | more significantly reduced the expression of ROS per unit cells | reduced the proportion of senescent cells |  | did not have a toxic effect |  | 
H-Gly-Pro-Gln-Gly-Pro-Gln-NH2 (H-GPQGPQ-NH2) [reference peptide, collagen peptide of EP1406589B1] | failed to reduce the ROS level per unit cells | unable to reduce the proportion of senescent cells |  |  | had a certain effect in reducing ROS |  |  |  | good solubility in water | improved cell viability
